Reference: patent publication US12708608B2, “Methods of treating schizophrenia and other neuropsychiatric disorders” (UNIVERSITY OF ROCHESTER, priority 2018, dated 2026)
“Also recorded” adds a separate entry of the source. Like-named read-outs stand apart in the source and are kept apart here.

Key:
Format in all cases: cell-based, human
[1] = system: REST-overexpressing CTR astrocytes; assay: Potassium (86Rb) uptake by CTR astrocytes transduced to over-express REST
[2] = system: CTR astrocytes; assay: Potassium (86Rb) uptake by control-derived astrocytes; settings: 4 CTR lines, drug-treated
Procedure: (§1) Potassium uptake Astrocytes were plated onto poly-ornithine- and laminin-coated 24-well plates with 30,000 cells/well. For the potassium uptake assay, astrocytes were incubated with ^86Rb (1.0-3.3 uCi/well) for 15 min, and then they were washed three time with ice-cold artificial cerebrospinal fluid (aCSF, 500 μL/well). For cell lysis, 0.5N NaOH (200 μL/well) was put into each well, which was put into 5 ml cocktail liquid (Ultima Gold, Fisher Scientific, 509050575) and measured by scintillation counter (Beckman Coulter, LS6500), and the results were normalized to both total protein (BCA Protein Assay Kit, Fisher Scientific, 23227) and cell number (Hemocytometer, Fisher Scientific, 02-671-54). The aCSF solution contained (in mM) 124 NaCl, 2.5 KCl, 1.75 NaH2PO4, 2 MgCl2, 2 CaCl2, 0.04 Vit.C, 10 glucose and 26 NaHCO3, pH 7.4.
Next, functional K^+ uptake was assessed directly, in cultured SCZ- and CTR-derived astrocytes. To obtain mature SCZ and CTR astrocyte cultures, CD44-sorted astrocyte-biased progenitors were cultured in base media supplemented with 10% fetal bovine serum (FBS) and 20 ng/ml BMP4 for 3 weeks, so as to potentiate the differentiation of mature, glial fibrillary acidic protein (GFAP)-expressing, fiber-bearing astrocytes (FIGS. 5A-5C). […] Astrocytes from 4 different SCZ and 4 different CTR lines were then incubated with ^86Rb, a surrogate monovalent cation for K^+ uptake (Larsen et al., “Contributions of the Na(+)/K(+)-ATPase, NKCC1, and Kir4.1 to Hippocampal K(+) Clearance and Volume Responses,” Glia 62:608-622 (2014), which is hereby incorporated by reference in its entirety), and rubidium uptake measured as a function of both cell number and total protein.

[3] = system: REST shRNAi-transduced SCZ astrocytes; assay: Potassium (86Rb) uptake by SCZ astrocytes with REST knockdown
[4] = system: SCZ astrocytes; assay: Potassium (86Rb) uptake by schizophrenia-derived astrocytes; settings: 4 SCZ lines, drug-treated
Procedure: as §1, with “The aCSF solution contained (in mM) 124 NaCl, 2.5 KCl, 1.75 NaH2PO4, 2 MgCl2, 2 CaCl2, 0.04 Vit.C, 10 glucose and 26 NaHCO3, pH 7.4.” left out
Next, functional K^+ uptake was assessed directly, in cultured SCZ- and CTR-derived astrocytes. […] Astrocytes from 4 different SCZ and 4 different CTR lines were then incubated with ^86Rb, a surrogate monovalent cation for K^+ uptake (Larsen et al., “Contributions of the Na(+)/K(+)-ATPase, NKCC1, and Kir4.1 to Hippocampal K(+) Clearance and Volume Responses,” Glia 62:608-622 (2014), which is hereby incorporated by reference in its entirety), and rubidium uptake measured as a function of both cell number and total protein.
To test this postulate, lentivirus was used to overexpress REST in CTR glial cells, and K^+ uptake by the transduced cells was assessed.

Compound | K+ uptake by REST-overexpressing CTR astrocytes ([1]; 86Rb uptake, lentiviral-REST transduced CTR astrocytes, drug-treated) | K+ uptake by CTR astrocytes [2] | K+ uptake by SCZ glia with REST knockdown ([3]; 86Rb uptake, REST shRNAi-transduced SCZ astrocytes, drug-treated) | K+ uptake by SCZ astrocytes [4] | K+ uptake by REST-overexpressing CTR astrocytes [1] | K+ uptake by CTR astrocytes ([2]; listed as Ouabain) | K+ uptake by SCZ glia with REST knockdown [3]
CCCCNc1cc(C(=O)O)cc(S(N)(=O)=O)c1Oc1ccccc1 [bumetanide] | Neither ouabain nor bumetanide further decreased | significantly inhibited; also recorded: efficiently decreased | significantly reduced; also recorded: significantly inhibited | neither ouabain nor bumetanide affected; also recorded: neither affected |  |  | 
C[C@@H]1O[C@@H](O[C@H]2C[C@@H](O)[C@]3(CO)[C@H]4[C@H](O)C[C@]5(C)[C@@H](C6=CC(=O)OC6)CC[C@]5(O)[C@@H]4CC[C@]3(O)C2)[C@H](O)[C@H](O)[C@H]1O [ouabain] |  | significantly inhibited; also recorded: efficiently decreased |  | neither ouabain nor bumetanide affected; also recorded: neither affected | Neither ouabain nor bumetanide further decreased | significantly inhibited | significantly reduced; also recorded: significantly inhibited
tertiapin (ALCNCNRIIIPHMCWKKCGKK; UniProt P56587 1-21, looked up) [drug which targets Kir (inwardly rectifying K+) channels] |  | did not |  |  |  |  | 
